From paper PMC6440985, “Heterogeneous drug tissue binding in brain regions of rats, Alzheimer’s patients and controls: impact on translational drug development” (Scientific Reports, 2019)
Like-named read-outs stand apart in the source and are kept apart here.

Columns and labels:
[1] = Regional brain tissue binding by equilibrium dialysis, human post-mortem brain homogenate (control and AD donors); assay type: in vitro ADME; conditions: for fu,brain,ROI in CRB of AD patients compared to rat CRB: AD patients versus healthy Sprague-Dawley rats; for fraction unbound at 6 h, 1 µM: human, post-mortem brain tissue homogenate
[2] = rat, brain homogenate
[3] = design: method as in Loryan et al.[23]; conditions: Rat, ref Loryan et al.[23], cited from earlier work; for fu,brain,ROI Mean: biological replicates; for fu,brain,ROI Median: technical replicates
in vitro = conditions: Sprague-Dawley, rat, brain homogenate
[4] = on average; according to prior information; cited from earlier work
[5] = AD group, within-group comparison
[6] = AD donors, BG, pH 7.4, AD donors, BG, biological replicates, 1 µM, 6 h, 37 °C, read-out: fu,brain,ROI Mean
[7] = AD donors, BG, pH 7.4, AD donors, BG, technical replicates, 1 µM, 6 h, 37 °C, read-out: fu,brain,ROI Median
[8] = AD donors, CRB, pH 7.4, AD donors, CRB, biological replicates, 1 µM, 6 h, 37 °C, read-out: fu,brain,ROI Mean
[9] = AD donors, FrCx, pH 7.4, AD donors, FrCx, biological replicates, 1 µM, 6 h, 37 °C, read-out: fu,brain,ROI Mean
[10] = AD donors, FrCx, pH 7.4, AD donors, FrCx, technical replicates, 1 µM, 6 h, 37 °C, read-out: fu,brain,ROI Median
[11] = AD donors, PrCx, pH 7.4, AD donors, PrCx, biological replicates, 1 µM, 6 h, 37 °C, read-out: fu,brain,ROI Mean
[12] = AD donors, PrCx, pH 7.4, AD donors, PrCx, technical replicates, 1 µM, 6 h, 37 °C, read-out: fu,brain,ROI Median
[13] = control donors, BG, pH 7.4, Control donors, BG, biological replicates, 1 µM, 6 h, 37 °C, read-out: fu,brain,ROI Mean
[14] = control donors, BG, pH 7.4, Control donors, BG, technical replicates, 1 µM, 6 h, 37 °C, read-out: fu,brain,ROI Median
[15] = control donors, CRB, pH 7.4, Control donors, CRB, biological replicates, 1 µM, 6 h, 37 °C, read-out: fu,brain,ROI Mean
[16] = control donors, CRB, pH 7.4, Control donors, CRB, technical replicates, 1 µM, 6 h, 37 °C, read-out: fu,brain,ROI Median
[17] = control donors, FrCx, pH 7.4, Control donors, FrCx, biological replicates, 1 µM, 6 h, 37 °C, read-out: fu,brain,ROI Mean
[18] = control donors, FrCx, pH 7.4, Control donors, FrCx, technical replicates, 1 µM, 6 h, 37 °C, read-out: fu,brain,ROI Median
[19] = control donors, PrCx, pH 7.4, Control donors, PrCx, biological replicates, 1 µM, 6 h, 37 °C, read-out: fu,brain,ROI Mean
[20] = control donors, PrCx, pH 7.4, Control donors, PrCx, technical replicates, 1 µM, 6 h, 37 °C, read-out: fu,brain,ROI Median
[21] = AD donors, CRB, pH 7.4, AD donors, CRB, technical replicates, 1 µM, 6 h, 37 °C, read-out: fu,brain,ROI Median

Row | Compound | ratio of fu,brain,ROI in CRB compared to PrCx [1, 5] | fu,brain,ROI in CRB of AD patients compared to rat CRB [1] | fraction unbound at 6 h, 1 µM [1, 6] | fraction unbound at 6 h, 1 µM [1, 7] | fraction unbound at 6 h, 1 µM [1, 8] | fraction unbound at 6 h, 1 µM [1, 9] | fraction unbound at 6 h, 1 µM [1, 10] | fraction unbound at 6 h, 1 µM [1, 11] | fraction unbound at 6 h, 1 µM [1, 12] | fraction unbound at 6 h, 1 µM [1, 13] | fraction unbound at 6 h, 1 µM [1, 14] | fraction unbound at 6 h, 1 µM [1, 15] | fraction unbound at 6 h, 1 µM [1, 16] | fraction unbound at 6 h, 1 µM [1, 17] | fraction unbound at 6 h, 1 µM [1, 18] | fraction unbound at 6 h, 1 µM [1, 19] | fraction unbound at 6 h, 1 µM [1, 20] | between region comparison of fu,brain,ROI [2] | fraction unbound at 6 h, 1 µM [1, 21] | fraction unbound at 6 h, 1 µM (in vitro; pH 7.4, fu,brain,ROI Mean) | also measured
1 | Cc1nc2n(c(=O)c1CCN1CCC(c3noc4cc(F)ccc34)CC1)CCCC2O (stereo not drawn) [Paliperidone, paliperidone] | ≥ 1.5 | twice as high | 0.249 | 0.249 | 0.374 | 0.237 | 0.216 | 0.232 | 0.224 | 0.186 | 0.192 | 0.217 | 0.207 | 0.197 | 0.198 | 0.189 | 0.183 | no differences in binding |  |  | fu,brain,ROI Median ([1]; AD donors, CRB, technical replicates, 1 µM, 6 h, 37 °C): 0.350; ratio of fu,brain,ROI in CRB compared to BG [1, 5]: 1.4; fold lower BTB in CRB compared to frontal and parietal cortices ([1]; AD patients, average): 1.5 fold; ratio of fu,brain,ROI AD versus control ([1]; CRB, between group comparison): 1.6; regional within-group comparison of fu,brain,ROI ([1]; control group, FrCx, PrCx, BG, CRB): uniform binding; fu,brain,ROI Mean ([3]; BG): 0.128; fu,brain,ROI Median ([3]; BG): 0.128; fu,brain,ROI Mean ([3]; CRB): 0.145; fu,brain,ROI Median ([3]; CRB): 0.143; fu,brain,ROI Mean ([3]; FrCx): 0.144; fu,brain,ROI Median ([3]; FrCx): 0.138; fu,brain,ROI Mean ([3]; HIP): 0.157; fu,brain,ROI Median ([3]; HIP): 0.150; fu,brain,ROI Mean ([3]; WB): 0.141; fu,brain,ROI Median ([3]; WB): 0.151
2 | CC12CC3CC(C)(C1)CC(N)(C3)C2 [Memantine, memantine] | ≥ 1.5 | twice as high | 0.114 | 0.111 | 0.152 | 0.114 | 0.117 | 0.099 | 0.103 | 0.092 | 0.093 | 0.113 | 0.116 | 0.094 | 0.092 | 0.088 | 0.086 | no differences in binding | 0.142 | 0.076 | fold higher fu,brain,ROI in CRB compared to PrCx ([1]; control group, within-group comparison): ≥ 1.3 fold; fraction unbound at 6 h, 1 µM (in vitro; pH 7.4, fu,brain,ROI Median): 0.073
3 | COc1ccc2c(c1)c(CC(=O)O)c(C)n2C(=O)c1ccc(Cl)cc1 [Indomethacin, indomethacin] |  | twice as high | 0.089 | 0.089 | 0.149 | 0.103 | 0.095 |  | 0.08 | 0.073 | 0.071 | 0.113 | 0.109 | 0.088 | 0.088 | 0.079 | 0.083 | no differences in binding | 0.116 | 0.068 | plasma protein binding exceeding brain tissue binding [4]: 5 fold; fraction unbound at 6 h, 1 µM (in vitro; pH 7.4, fu,brain,ROI Median): 0.065
